Values after ≈ are worked out from the molar mass of the structure shown.
Key:
Type in all cases: functional
[1] = system: Escherichia coli; test: Antibacterial activity against Escherichia coli harboring pRYC plasmid expressing blaKPC gene by Etest method
[2] = system: Escherichia coli; test: Antibacterial activity against Escherichia coli harboring pCOL plasmid expressing blaKPC gene by Etest method in presence of beta-lactamase inhibitor clavulanic acid
[3] = system: Klebsiella pneumoniae; test: Antibacterial activity against Klebsiella pneumoniae YC by Etest method
[4] = system: Klebsiella pneumoniae; test: Antibacterial activity against Klebsiella pneumoniae 633 by Etest method in presence of beta-lactamase inhibitor clavulanic acid
[5] = system: Escherichia coli; test: Antibacterial activity against Escherichia coli harboring pBC633 plasmid expressing blaKPC gene by Etest method in presence of beta-lactamase inhibitor clavulanic acid
[6] = system: Escherichia coli; test: Antibacterial activity against Escherichia coli harboring pNYC plasmid expressing blaKPC gene by Etest method in presence of beta-lactamase inhibitor clavulanic acid
[7] = system: Escherichia coli; test: Antibacterial activity against Escherichia coli harboring pRYC plasmid expressing blaKPC gene by Etest method in presence of beta-lactamase inhibitor clavulanic acid
[8] = system: Escherichia coli; test: Antibacterial activity against Escherichia coli harboring pBC2303 expressing blaKPC gene plasmid by Etest method
[9] = system: Klebsiella pneumoniae; test: Antibacterial activity against Klebsiella pneumoniae KN2303 by Etest method in presence of beta-lactamase inhibitor clavulanic acid
[10] = system: Klebsiella pneumoniae; test: Antibacterial activity against Klebsiella pneumoniae 633 by Etest method
[11] = system: Pseudomonas aeruginosa; test: Antibacterial activity against Pseudomonas aeruginosa KG2505 by Etest method in presence of beta-lactamase inhibitor clavulanic acid
[12] = system: Pseudomonas aeruginosa; test: Antibacterial activity against Pseudomonas aeruginosa 2404 plasmid by Etest method in presence of beta-lactamase inhibitor clavulanic acid
[13] = system: Klebsiella pneumoniae; test: Antibacterial activity against Klebsiella pneumoniae GR by Etest method in presence of beta-lactamase inhibitor clavulanic acid
[14] = system: Klebsiella pneumoniae; test: Antibacterial activity against Klebsiella pneumoniae YC by Etest method in presence of beta-lactamase inhibitor clavulanic acid
[15] = system: Escherichia coli; test: Antibacterial activity against Escherichia coli harboring pCOL plasmid expressing blaKPC gene by Etest method
[16] = system: Escherichia coli; test: Antibacterial activity against Escherichia coli DH10B expressing blaKPC gene by Etest method in presence of beta-lactamase inhibitor clavulanic acid
[17] = system: Pseudomonas aeruginosa; test: Antibacterial activity against Pseudomonas aeruginosa 2404 plasmid by Etest method
[18] = system: Escherichia coli; test: Antibacterial activity against Escherichia coli harboring pNYC plasmid expressing blaKPC gene by Etest method
[19] = system: Klebsiella pneumoniae; test: Antibacterial activity against Klebsiella pneumoniae GR by Etest method
[20] = system: Pseudomonas aeruginosa; test: Antibacterial activity against Pseudomonas aeruginosa KG2505 harboring pCOL plasmid by Etest method
[21] = system: Pseudomonas aeruginosa; test: Antibacterial activity against Pseudomonas aeruginosa KG2505 harboring pCOL plasmid by Etest method in presence of beta-lactamase inhibitor clavulanic acid
[22] = system: Escherichia coli; test: Antibacterial activity against Escherichia coli DH10B expressing blaKPC gene by Etest method
[23] = system: Escherichia coli; test: Antibacterial activity against Escherichia coli harboring pNGR plasmid expressing blaKPC gene by Etest method
[24] = system: Klebsiella pneumoniae; test: Antibacterial activity against Klebsiella pneumoniae KN2303 by Etest method
[25] = system: Pseudomonas aeruginosa; test: Antibacterial activity against Pseudomonas aeruginosa KG2505 by Etest method
[26] = system: Escherichia coli; test: Antibacterial activity against Escherichia coli harboring pBC633 plasmid expressing blaKPC gene by Etest method
[27] = system: Escherichia coli; test: Antibacterial activity against Escherichia coli harboring pBC2303 expressing blaKPC gene plasmid by Etest method in presence of beta-lactamase inhibitor clavulanic acid
[28] = system: Escherichia coli; test: Antibacterial activity against Escherichia coli harboring pNGR plasmid expressing blaKPC gene by Etest method in presence of beta-lactamase inhibitor clavulanic acid

C[C@@H](O)[C@H]1C(=O)N2C(C(=O)O)=C(SCCNC=N)C[C@H]12 [IMIPENEM ANHYDROUS]
MIC [1]: 12 µg/mL (≈ 40.1 µM) | MIC [2]: 0.1 µg/mL | MIC [3]: 4 µg/mL (≈ 13.4 µM) | MIC [4]: 0.75 µg/mL | MIC [5]: 0.75 µg/mL | MIC [6]: 2 µg/mL | MIC [7]: 3 µg/mL | MIC [8]: 1 µg/mL (≈ 3.34 µM) | MIC [9]: > 32 µg/mL | MIC [10]: > 32 µg/mL | MIC [11]: 0.19 µg/mL | MIC [12]: > 32 µg/mL | MIC [13]: 0.75 µg/mL | MIC [14]: 2 µg/mL | MIC [15]: 0.19 µg/mL (≈ 0.635 µM) | MIC [16]: 0.38 µg/mL | MIC [17]: > 32 µg/mL | MIC [18]: 8 µg/mL (≈ 26.7 µM) | MIC [19]: 12 µg/mL (≈ 40.1 µM) | MIC [20]: > 32 µg/mL | MIC [21]: 2 µg/mL | MIC [22]: 1.5 µg/mL (≈ 5.01 µM) | MIC [23]: 1.5 µg/mL (≈ 5.01 µM) | MIC [24]: > 32 µg/mL | MIC [25]: 0.19 µg/mL (≈ 0.635 µM) | MIC [26]: 6 µg/mL (≈ 20 µM)

CC1(C)S[C@@H]2[C@H](NC(=O)[C@H](N)c3ccc(O)cc3)C(=O)N2[C@H]1C(=O)O [AMOXICILLIN]
MIC [1]: > 256 µg/mL | MIC [2]: 2 µg/mL | MIC [3]: > 256 µg/mL | MIC [4]: 32 µg/mL | MIC [27]: 24 µg/mL | MIC [5]: 32 µg/mL | MIC [6]: 32 µg/mL | MIC [7]: 64 µg/mL | MIC [8]: > 256 µg/mL | MIC [9]: > 256 µg/mL | MIC [10]: > 256 µg/mL | MIC [11]: 0.25 µg/mL | MIC [12]: > 256 µg/mL | MIC [13]: 48 µg/mL | MIC [14]: 32 µg/mL | MIC [15]: 2 µg/mL (≈ 5.47 µM) | MIC [16]: 24 µg/mL | MIC [17]: > 256 µg/mL | MIC [18]: > 256 µg/mL | MIC [19]: > 256 µg/mL | MIC [20]: > 256 µg/mL | MIC [21]: > 256 µg/mL | MIC [22]: > 256 µg/mL | MIC [23]: > 256 µg/mL | MIC [24]: > 256 µg/mL | MIC [25]: 0.25 µg/mL (≈ 0.684 µM) | MIC [28]: 24 µg/mL | MIC [26]: > 256 µg/mL

CC(C)(O/N=C(\C(=O)N[C@@H]1C(=O)N2C(C(=O)[O-])=C(C[n+]3ccccc3)CS[C@H]12)c1csc(N)n1)C(=O)O [CEFTAZIDIME]
MIC [1]: > 256 µg/mL | MIC [3]: 64 µg/mL (≈ 117 µM) | MIC [8]: 256 µg/mL (≈ 468 µM) | MIC [10]: > 256 µg/mL | MIC [15]: 0.19 µg/mL (≈ 0.348 µM) | MIC [17]: > 256 µg/mL | MIC [18]: 4 µg/mL (≈ 7.32 µM) | MIC [19]: > 256 µg/mL | MIC [20]: > 256 µg/mL | MIC [22]: 8 µg/mL (≈ 14.6 µM) | MIC [23]: 4 µg/mL (≈ 7.32 µM) | MIC [24]: > 256 µg/mL | MIC [25]: 1 µg/mL (≈ 1.83 µM) | MIC [26]: 32 µg/mL (≈ 58.5 µM)

C[C@@H](O)[C@H]1C(=O)N2C(C(=O)O)=C(S[C@@H]3CN[C@H](C(=O)Nc4cccc(C(=O)O)c4)C3)[C@H](C)[C@H]12
MIC [1]: 4 µg/mL (≈ 8.41 µM) | MIC [2]: 0.002 µg/mL | MIC [3]: 24 µg/mL (≈ 50.5 µM) | MIC [4]: 8 µg/mL | MIC [27]: 0.02 µg/mL | MIC [5]: 0.19 µg/mL | MIC [6]: 0.05 µg/mL | MIC [7]: 1.5 µg/mL | MIC [8]: 0.25 µg/mL (≈ 0.526 µM) | MIC [9]: > 32 µg/mL | MIC [10]: > 32 µg/mL | MIC [11]: 0.03 µg/mL | MIC [12]: > 32 µg/mL | MIC [13]: 6 µg/mL | MIC [14]: 2 µg/mL | MIC [15]: 0.004 µg/mL (≈ 0.00841 µM) | MIC [16]: 0.05 µg/mL | MIC [17]: > 32 µg/mL | MIC [18]: 0.5 µg/mL (≈ 1.05 µM) | MIC [19]: 12 µg/mL (≈ 25.2 µM) | MIC [20]: > 32 µg/mL | MIC [21]: 2 µg/mL | MIC [22]: 0.25 µg/mL (≈ 0.526 µM) | MIC [23]: 0.38 µg/mL (≈ 0.799 µM) | MIC [24]: > 32 µg/mL | MIC [25]: 0.25 µg/mL (≈ 0.526 µM) | MIC [28]: 0.01 µg/mL | MIC [26]: 2 µg/mL (≈ 4.21 µM)

CO/N=C(\C(=O)N[C@@H]1C(=O)N2C(C(=O)[O-])=C(C[N+]3(C)CCCC3)CS[C@H]12)c1csc(N)n1
MIC [1]: > 32 µg/mL | MIC [8]: 3 µg/mL (≈ 6.24 µM) | MIC [10]: > 32 µg/mL | MIC [15]: 0.02 µg/mL (≈ 0.0416 µM) | MIC [17]: > 32 µg/mL | MIC [18]: 1 µg/mL (≈ 2.08 µM) | MIC [19]: > 32 µg/mL | MIC [20]: > 32 µg/mL | MIC [22]: 1 µg/mL (≈ 2.08 µM) | MIC [23]: 1.5 µg/mL (≈ 3.12 µM) | MIC [24]: > 32 µg/mL | MIC [25]: 0.5 µg/mL (≈ 1.04 µM) | MIC [26]: 4 µg/mL (≈ 8.32 µM)

CO/N=C(\C(=O)N[C@@H]1C(=O)N2C(C(=O)O)=C(COC(C)=O)CS[C@H]12)c1csc(N)n1 [CEFOTAXIME]
MIC [1]: > 32 µg/mL | MIC [2]: 0.01 µg/mL | MIC [3]: > 32 µg/mL | MIC [4]: > 32 µg/mL | MIC [27]: 0.38 µg/mL | MIC [5]: 3 µg/mL | MIC [6]: 2 µg/mL | MIC [7]: > 32 µg/mL | MIC [8]: 16 µg/mL (≈ 35.1 µM) | MIC [9]: > 32 µg/mL | MIC [10]: > 32 µg/mL | MIC [11]: 0.19 µg/mL | MIC [12]: > 32 µg/mL | MIC [13]: 32 µg/mL | MIC [14]: 16 µg/mL | MIC [15]: 0.05 µg/mL (≈ 0.11 µM) | MIC [16]: 0.25 µg/mL | MIC [17]: > 32 µg/mL | MIC [18]: 4 µg/mL (≈ 8.78 µM) | MIC [19]: > 32 µg/mL | MIC [20]: > 32 µg/mL | MIC [21]: > 32 µg/mL | MIC [22]: 3 µg/mL (≈ 6.59 µM) | MIC [23]: 4 µg/mL (≈ 8.78 µM) | MIC [24]: > 32 µg/mL | MIC [25]: 0.25 µg/mL (≈ 0.549 µM) | MIC [28]: 0.38 µg/mL | MIC [26]: 32 µg/mL (≈ 70.3 µM)
